# According to patent US20090053138A1, “Stabilized Aptamers to Platelet Derived Growth Factor and their Use as Oncology Therapeutics” (priority 2002, published 2009):
# {PEG40k} = 40 kDa polyethylene glycol; [invdT] = inverted (3'-3') thymidine; [HEG] = hexaethylene glycol spacer
# Key:
# [1] = biological target: T1, rat PDGF-BB (Rattus norvegicus, UniProt Q05028); assay: Cell migration assay, 3T3 cells; type: cell-based; settings: 100 nM aptamer, 5 nM PDGF BB, 24 well format
# T1 construct: purchased PeproTech, Rocky Hill, N.J
# Protocol: PDGF is a strong mitogen as well as a chemoattractant. […] In the cell migration assay 80,000 cells 3T3 rat fibroblasts (ATCC, Manassas, Va.) or RPE (retinal pigmented epithelial) cells (ATCC, Manassas, Va.) were plated per well into a 24 well plate with 8 micron filters (BD Biosciences, Discovery Labware, Bedford, Mass.). 0.5 ml DMEM/0.2% FCS was added to the top chamber and 0.8 ml DMEM/0.2% FCS was added to the bottom chamber. The system was equilibrated by incubating for 4 hours at 37 degrees celsius. Human PDGF-BB (PeproTech, Rocky Hill, N.J.) (for RPE cells) or rat PDGF-BB (PeproTech) (for 3T3 cells) was added to the bottom chamber (0 ng/ml-100 ng/ml final concentration). The system was incubated 4 hours to 12 hours. Cells were scraped off on the top of filter with a Q-tip. The cells that migrated to the bottom of the filter were fixed with a mixture of cold 50% Methanol/50% Acetone for 3 minutes.
# Following incubation filters were washed with 1×PBS and stained with Giemsa Stain (Matheson Coleman and Bell) for 1-2 hours and migration was visualized by taking pictures on a Zeiss Axiovert 200M microscope.
# [2] = biological target: T2, PDGF BB (Homo sapiens, UniProt P01127); assay: Competition binding assay, PDGF-BB; parameters: purchased PeproTech, Rocky Hill, N.J; settings: scrambled variant
# Protocol: Binding reactions were carried out in phosphate-buffered saline (Cellgro, Herndon, Va.) containing 0.2 mg/mL bovine serum albumin (NEB) and 0.02 mg/mL tRNA (Sigma, St. Louis, Mo.). The reactions were equilibrated for a period of 15-30 minutes at room temperature, then filtered through a sandwich of nitrocellulose (Protran membrane, Perkin-Elmer, Boston, Mass.) and nylon (Hybond membrane, Amersham, Piscataway, N.J.) membranes to separate target bound aptamer from free aptamer.
# Next, a study was done to determine whether ARC126 cross reacted with PDGF-BB of species other than human. Competition binding assays were set up by dot blot analysis, as previously described, using human, rat, and mouse PDGF-BB (PeproTech, Rocky Hill, N.J.).
# The competitive binding assay previously described was used to determine the in vitro binding affinity and selectivity of ARC594 for different PDGF isoforms. Different concentrations of unlabeled, competitor aptamer were titrated in separate reactions against a fixed (<0.1 nM) amount of ^32P-radiolabeled ARC594 in buffer containing a fixed amount (0.1 nM) of the aptamer's cognate target (PDGF-BB; PeproTech). UnPEGylated version of ARC594 was radiolabeled at the 5′ terminus by incubation with γ-^32P-ATP (ICN) and polynucleotide kinase (NEB). Binding reactions were carried out in phosphate-buffered saline (Cellgro) containing 0.2 mg/mL bovine serum albumin (NEB) and 0.02 mg/mL tRNA (Sigma). The reactions were equilibrated for a period of 15-30 minutes at room temperature, then filtered through a sandwich of nitrocellulose (Protran membrane, Perkin-Elmer) and nylon (Hybond membrane, Amersham) membranes to separate target bound aptamer from free aptamer. […] The data was expressed as the ratio of the counts per minute (CPM) of radioactivity due to ^32P-ARC594 bound to PDGF BB on the nitrocellulose membrane (CPMnitrocellulose or CPMnc) over the total CPM (CPMtotal=CPMnitrocellulose+CPMnylon).
# [3] = tested on: Lewis lung carcinoma; assay: Mouse Lewis lung carcinoma model; settings: scrambled aptamer 50 mg/kg
# Description: A 1 mm^3 piece of Lewis lung carcinoma was implanted under the dorsal skin of wild-type C57BL/6 mice and allowed to grow. […] At the end of the seven day period, the mice were anesthetized, and the following tissues were fixed by vascular perfusion with 1% paraformaldehyde, removed and frozen for cryotstat sectioning: tumor (Lewis lung carcinoma), pancreas, liver, kidney, trachea, spleen, jejunum, and thyroid tissue. The resulting slides were stained with antibodies against various markers as described below.
# Sections of tumors were cut (80 μm) and stained with either anti-CD31 or anti-α smooth muscle actin (“α-SMA”) antibodies. Digital fluorescence microscopic images were obtained for area density measurements by using a CoolCam low-light 3-chip RGB CCD camera. […] In addition, the tumors were imaged by confocal microscopy. […]
# Sections of tumors were cut (80 μm) and stained with either anti-CD31 or anti-type IV collagen antibodies. Digital fluorescence microscopic images were obtained for area density measurements by using a CoolCam camera. […]
# Pericyte expression was measured using the Cool Cam and confocal images were also taken.
# The extent of pericyte colocalization with endothelial cells was then measured on digital Cool Cam images.
# The extent of pericyte colocalization with endothelial cells was measured on digital CoolCam images. […]
# [4] = tested on: U87 glioblastoma cells; assay: Clonogenic growth assay; type: cell-based
# Protocol: U87 glioblastoma cells (ATCC) were grown in the presence or absence of mitogen as well as aptamer as shown in the panels. U87 cells were plated in DMEM/10% FBS to 50% confluency in 100 mm dishes. […] The addition of a final concentration of 50 ng/ml PDGF BB alone caused the appearance of highly connected three dimensional cell clusters. […] Thus, the aptamer blocks cell to cell adhesion of U87 cells which are known to have PDGF driven autocrine loops.
# [5] = tested on: LS174T colon cancer xenograft
# Description: Experimental overview. Human HT-29 or LS174T colon cancer xenotransplants were established in athymic nude mice (Nu/Nu mice, Charles River Labs, Wilmington, Mass.) by injecting mice with 1×10^7 HT29 cells (ATCC, Manassas, Va.), or 2×10^6 LS174T cells (ATCC Manassas, Va.) sub-cutaneously and allowing the tumors to grow for 5 days. On day 5, two dimensional measurements of the established tumors were taken using a digital caliper. Once tumor measurements were taken, the mice were randomized into groups such that the average tumor size was the same in each group. […]
# A third experiment (Experiment 3) was designed to test ARC308/irinotecan and GLEEVEC™/irinotecan dosing regimens in a colon cancer xenotransplant model using human colon carcinoma cell line LS174T (ATCC). […] ARC308 was dosed via intraperitoneal delivery at 50 mg/kg once daily, and GLEEVEC™ was dosed at 50 mg/kg once daily, Monday through Friday. ARC308 prevents PDGF-BB from binding the PDGF receptor; this molecule has a 30K PEG attached. […] The results are statistically significant (two tailed students T-test).
# An efficacy analysis of three treatment groups in this study is shown in Table 10 in terms of log cell kill and log cell kill net. Log cell kill is the log(base10) of the number of tumor cells before treatment divided by the number of cells after treatment. […] A fourth experiment (Experiment 4) was designed to further test ARC308/irinotecan dosing regimens in a colon cancer xenotransplant model using human colon carcinoma cell line LS174T (ATCC). […]
# [6] = biological target: T2, PDGF BB; settings: in vivo, iv, 10 mg/kg
# Protocol: As a secondary test of both the plasma pharmacokinetics and the in vivo bioactivity of ARC594 the competition binding assay was used to assay the same plasma samples used to generate the pharmacokinetic data. Serial 1:10 dilutions of plasma sample were prepared in phosphate-buffered saline (1×PBS) and mixed with a fixed concentration of ^32P-ARC594, then added to human PDGF-BB. The final concentration of PDGF in each assay was 0.1 nM, and the final concentration of ^32P-ARC594<0.1 nM. In this experiment, the plasma samples were analyzed by comparison with a standard curve generated with samples of known ARC594 concentrations in 1×PBS.
# [7] = Pharmacokinetics of ARC126 5′ PEG conjugates in mice
# Description: The pharmacokinetic (PK) data shown in FIG. 12A was subjected to non-compartmental analysis (NCA) using the industry-standard software package WinNonLin™ v.4.0 (Pharsight Corp., Mountain View, Calif.). […] The pharmacokinetic (PK) data shown in FIG. 12B was subjected to noncompartmental analysis (NCA) using the industry-standard software package WinNonLin™ v.4.0 (Pharsight Corp., Mountain View, Calif.).
# The pharmacokinetic (PK) data shown in FIG. 12B was subjected to noncompartmental analysis (NCA) using the industry-standard software package WinNonLin™ v.4.0 (Pharsight Corp., Mountain View, Calif.).
# [8] = IV administration at 10 mg/kg in mice
# T2 sequence (P01127 82-190 limits assumed): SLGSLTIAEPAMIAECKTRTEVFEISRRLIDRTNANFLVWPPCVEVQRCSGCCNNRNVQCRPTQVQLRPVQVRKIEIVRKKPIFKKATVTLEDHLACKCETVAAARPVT
# T1 sequence (Q05028 66-174 limits assumed): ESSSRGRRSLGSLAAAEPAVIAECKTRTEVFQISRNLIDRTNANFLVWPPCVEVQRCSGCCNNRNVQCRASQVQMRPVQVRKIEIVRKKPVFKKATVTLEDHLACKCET
substance,measurement,setting,value
"5′-(SEQ ID NO.4)-HEG-(SEQ ID NO:5)-HEG-(SEQ ID NO:6)-3 (chain 1 CAGCGUACG; chain 2 CGTACCGATUCA; chain 3 TGAAGCUG; HEG spacers joining pieces; synthetic aptamer; modified_base (4)..(4) cytidine is 2′-fluoro; modified_base (5)..(5) gm; modified_base (6)..(6) uridine is 2′-fluoro; modified_base (8)..(8) cytidine is 2′-fluoro; modified_base (9)..(9) gm; modified_base (7)..(7) gm; modified_base (10)..(10) uridine is 2′-fluoro; modified_base (11)..(11) cytidine is 2′-fluoro; modified_base (12)..(12) adenosine is 2′-O-Methyl; modified_base (6)..(6) cytidine is 2′-fluoro; modified_base (7)..(7) uridine is 2′-fluoro; modified_base (8)..(8) gm) [ARC128, reference compound]",migration of 3T3 cells,[1],no activity
same,binding to PDGF,[2],no longer binds PDGF
same,effect on tumor vasculature (confocal images),[3],did not affect the tumor vasculature
"5′-[40 K PEG]-(SEQ ID NO:1)-HEG-(SEQ ID NO:2)-HEG-(SEQ ID NO:3)-3′-dT-3′ (chain 1 CAGGCUACG; chain 2 CGTAGAGCAUCA; chain 3 TGATCCUG; piece 1: 2'-fluoro at 6, 8, 2'-O-methyl at 9, 5' {PEG40k}, 3' [HEG], other sugars and backbone not given here; piece 2: 2'-O-methyl at 5, 7, 12, 2'-fluoro at 10, 11, 3' [HEG], other sugars and backbone not given here; piece 3: 2'-fluoro at 5, 6, 7, 2'-O-methyl at 8, 3' [invdT], other sugars and backbone not given here) [ARC127]",proliferation rate of U87 cells (MTT assay),[4],no effect on proliferation rate
same,occurrence of three dimensional cell clusters,[4]; 50 ng/ml PDGF-BB plus ARC127,reduced the occurrence of clusters to background level
same,efficacy of irinotecan (rate of tumor growth),[5]; Experiment 2: ARC127 50 mg/kg IP once daily + irinotecan 150 mg/kg weekly vs irinotecan alone,enhanced the efficacy of irinotecan treatment
same,dose-limiting side effects,[5]; in vivo experiments,not evident
same,migration of 3T3 cells,[1],inhibits the effects of 5 nM PDGF-BB
same,active aptamer in plasma,[6],present and active
same,AUC,"[7]; IP, 10 mg/kg in mice",143605.5 nM·h
same,MRT,"[7]; IP, 10 mg/kg in mice",11.231 h
same,tmax,"[7]; IP, 10 mg/kg in mice",8 h
same,Cmax,[7]; [8],61 µM
same,MRT,[7]; [8],5.08 h
same,Vs,[7]; [8],0.0001 L/kg
same,AUC,"[7]; IV, 10 mg/kg in mice",229686.8 nM·h
same,MRT,"[7]; IV, 10 mg/kg in mice",6.573 h
same,tmax,"[7]; IV, 10 mg/kg in mice",2 h
same,plasma concentration at 24 hrs post-dose,"[7]; IV, IP or SC, 10 mg/kg in mice",~1
same,AUC,"[7]; SC, 10 mg/kg in mice",55030.91 nM·h
same,MRT,"[7]; SC, 10 mg/kg in mice",16.632 h
same,tmax,"[7]; SC, 10 mg/kg in mice",8 h
same,"systemic bioavailability, F","[7]; intraperitoneal (IP), 10 mg/kg in mice",~63%
same,"systemic bioavailability, F","[7]; subcutaneous (SC), 10 mg/kg in mice",~24%
